# Experimental data as given in patent US20260014175A1, “PHARMACEUTICAL COMPOSITION FOR ORAL ADMINISTRATION OF CANNABINOIDS” (EM[…]., priority 2022, published 2026).
# Experiment: Compatibility of CBD / CBD-containing SNEDDS with excipients (CBD release in SGF, SIF, FaSSIF)
# Format: physicochemical
# Experimental: A number of different compositions were prepared and tested in order to determine the compatibility of CBD and/or CBD-containing self-nanoemulsifying drug delivery systems (SNEDDS) with various excipients.
row,Compound,compatibility with CBD/CBD-containing SNEDDS
1,NCC(=O)O [Glycine],no signs of incompatibility
2,O=C([O-])CN(CCN(CC(=O)[O-])CC(=O)O)CC(=O)O.[Na+].[Na+] [EDTA sodium],no signs of incompatibility
3,"CCCCCCCCCCCCOS(=O)(=O)[O-].[Na+] [Sodium lauryl sulfate (SLS), Sodium lauryl sulfate]",no signs of incompatibility
